In brackets after ≈: the same amount, converted by molar mass. Structures can show the parent of a compound that is named as a salt. Where two headings read alike, the source gives them in different places.
Tests used:
[1] = tested on: L1210 mouse leukemia cells; test: formation of colonies of L1210 leukemia cells in soft agar; assay type: cell-based; conditions: for IC50: Mus musculus
Experimental: The cytostatic activity of the compounds according to the invention was tested using L1210 mouse leukemia cells. This made use of the formation of colonies of L1210 leukemia cells in agar plates. This method is used to detect the effect of the test substances on the growth behavior of the cells over 1 hour or over several generations. With a cell cycle lasting 10-12 hours, this means that about 14 consecutive generations are observed in a test lasting 7 days. In this test, the substances having cytostatic activity according to the invention bring about a reduction in the number of colonies to be observed by comparison with an untreated control sample.
500 leukemia cells per plate were incubated with various concentrations of the test substance at 37° C. for 1 hour. These cells were then washed twice with McCoy5A medium and finally, after addition of 0.3% agar, poured into Petri dishes. Controls were incubated only with fresh medium. In some cases, in place of the incubation for one hour, various concentrations of test substances were mixed with the upper agar layer in order in this way to achieve continuous exposure of the cells throughout the incubation time. After the agar had solidified, the plates were incubated at 37° C. in an incubator for 7 days (5% by vol. CO2, 95% relative humidity). The number of colonies with a diameter of more than 60 μm which had formed was then counted. The results have been given as the number of colonies in treated agar plates as a percentage of the untreated control. The IC50 was determined, as a measure of the activity of the substance, from the dose-effect plot obtained in this way.

[2] = approximative toxicity, intraperitoneal (LD50); conditions: in vivo, ip
Excerpt: *3xip,q3d: three intraperitoneal administrations with an interval of thre
1xip: one intraperitoneal administration

L1210 leukemia cells = test: cross-resistance in vitro, MTT assay on sensitive and adriamycin (doxorubicin)-resistant L1210 leukemia cells; assay type: cell-based, mouse; conditions: for Degree of cross-resistance to adriamycin / Degree of resistance of the cell: 3d incubation; for Degree of resistance of the cell: IC50 resistant subline relative to IC50 sensitive line
Experimental: L1210, A 549 or HT 29 in the exponential phase of growth are incubated in a cell density of 5×10^3 cells/ml in RPMI 1640 in a 96-well microtiter plate for 72 hours with various concentrations of the test substance at 37° C., 5% CO2 and 95% relative humidity. Control experiments contain merely growth medium in place of the test substance. Each test substance and the control are determined in quadruplicate. After incubation for 65 hours, 50 μl of MTT solution (2.5 mg/ml in phosphate-buffered saline) are added. In the presence of live cells, MTT is reduced to a dark-red insoluble formazan dyestuff. This reaction is complete after 7 hours (L1210 cells) or after 24 hours (A 549, HT 29 cells), and the supernatant medium is carefully removed by aspiration. The insoluble dyestuff is dissolved by addition of 100 μl of DMSO, and the extinction of the resulting solution at a wavelength of 492 nm is then measured for each well in a Flow 340 CC multiscan photometer.
The ratio of the extinctions of treated and untreated cells yields a dose-effect plot from which the concentration which just kills 50% of the cells (IC50) can be read off. The coefficient of variation for repeat tests is less than 15%.
The cross-resistance between the particular test compound and doxorubicin is determined using the MTT assay (for method, see above) on sensitive and resistant L1210 leukemia cells.
The resistant cell line was established by incubation of a sensitive subline with stepwise increasing concentrations of the reference compound.
The IC50 of the test compound on the resistant subline relative to the IC50 of the sensitive subline yields the degree of resistance both for the test compound (DR(T)) and for the reference compound (DR(R)) in accordance with the formula [formula]
In addition, the degree of cross-resistance (DCR) for the test compound is calculated in accordance with the formula [formula]
In the case where the loss of activity of the test compound on the resistant line related to the sensitive line is greater than that of the reference compound, a degree of cross-resistance of more than 100% is possible.

[3] = 1 h incubation, then 7 days colony formation, L1210
[4] = continuous exposure, 7 days, L1210 colony formation
[5] = three intraperitoneal administrations with an interval of three days between each, read-out: Approximative toxicity LD50, 3xip, q3d
[6] = 168 h, continuous exposure, 7 days, L1210 colony formation, read-out: Long-term incubation IC50
[7] = 1 h incubation, then 7 days colony formation, L1210, read-out: 1 h Incubation IC50
[8] = one intraperitoneal administration, read-out: Approximative toxicity LD50, 1xip
[9] = L1210, 168 h, read-out: Long-term incubation IC50, continuous exposure, 7 days, L1210 colony formation
[10] = L1210, read-out: 1 h Incubation IC50, 1 h incubation, then 7 days colony formation, L1210

| Structure (SMILES) | IC50 [1, 6] | IC50 [1, 7] | LD50 [2, 8] | IC50 [1, 9] | IC50 [1, 10] | other results |
| --- | --- | --- | --- | --- | --- | --- |
| CC[C@@]1(O)C[C@H](O[C@H]2C[C@H](N(C)C)[C@H](OC(=O)c3ccc(C#N)cc3)[C@H](C)O2)c2c(O)c3c(c(O)c2[C@H]1O[C@H]1C[C@H](N(C)C)[C@H](OC(=O)c2ccc(C#N)cc2)[C@H](C)O1)C(=O)c1cccc(O)c1C3=O [Compound 6, HCl adduct of compound 5] |  |  |  |  |  | 1 h Incubation IC50 [1, 3]: > 1 µg/mL; Long-term incubation IC50 [1, 4]: 0.14 µg/mL |
| CC[C@@]1(O)C[C@H](O[C@H]2C[C@H](N(C)C)[C@H](OC(=O)c3ccc(OC)cc3)[C@H](C)O2)c2c(O)c3c(c(O)c2[C@H]1O[C@H]1C[C@H](N(C)C)[C@H](O)[C@H](C)O1)C(=O)c1cccc(O)c1C3=O [Compound 12a, 7-O-[(4'-O-p-methoxybenzoyl)-α-L-rhodosaminyl]-10-O-α-L-rhodosaminyl-β-rhodomycinone] | 0.0085 µg/mL (≈ 0.0102 µM) | 0.13 µg/mL (≈ 0.156 µM) |  |  |  | LD50 [2, 5]: 10 to 15 mg/kg; Degree of cross-resistance to adriamycin (L1210 leukemia cells): 1.3%; Degree of resistance of the cell (L1210 leukemia cells): 0.75 |
| CC[C@@]1(O)C[C@H](O[C@H]2C[C@H](N(C)C)[C@H](O)[C@H](C)O2)c2c(O)c3c(c(O)c2[C@H]1O[C@H]1C[C@H](N(C)C)[C@H](OC(=O)c2ccc(OC)cc2)[C@H](C)O1)C(=O)c1cccc(O)c1C3=O [Compound 12b, 7-O-α-L-rhodosaminyl-10-O-[4"-O-(p-methoxybenzoyl)-α-L-rhodosaminyl]-β-rhodomycinone] | 0.011 µg/mL (≈ 0.0132 µM) | 0.1 µg/mL (≈ 0.12 µM) |  |  |  | LD50 [2, 5]: 5.33 to 10.7 mg/kg; Degree of cross-resistance to adriamycin (L1210 leukemia cells): 5.0%; Degree of resistance of the cell (L1210 leukemia cells): 5.0 |
| CC[C@@]1(O)C[C@H](O[C@H]2C[C@H](N(C)C)[C@H](OC(=O)c3ccc([N+](=O)[O-])cc3)[C@H](C)O2)c2c(O)c3c(c(O)c2[C@H]1O)C(=O)c1cccc(O)c1C3=O [Compound 19, 7-O-(4'-O-p-Nitrobenzoyl-α-L-rhodosaminyl)-β-rhodomycinone] |  |  | > 50 mg/kg | 0.03 µg/mL (≈ 0.0433 µM) | 0.55 µg/mL (≈ 0.794 µM) |  |
| CC[C@@]1(O)C[C@H](O[C@H]2C[C@H](N(C)C)[C@H](OC(=O)c3ccc(OC)cc3)[C@H](C)O2)c2c(O)c3c(c(O)c2[C@H]1O[C@H]1C[C@H](N(C)C)[C@H](OC(=O)c2ccc(OC)cc2)[C@H](C)O1)C(=O)c1cccc(O)c1C3=O [Compound 4, HCl adduct of compound 3] |  |  |  |  |  | 1 h Incubation IC50 [1, 3]: > 1 µg/mL; Long-term incubation IC50 [1, 4]: 0.09 µg/mL |
| CC[C@@]1(O)C[C@H](O[C@H]2C[C@H](N(C)C)[C@H](OC(=O)c3ccc(C#N)cc3)[C@H](C)O2)c2c(O)c3c(c(O)c2[C@H]1O[C@H]1C[C@H](N(C)C)[C@H](OC(=O)c2ccc(C#N)cc2)[C@H](C)O1)C(=O)c1cccc(O)c1C3=O [Compound 5, 7,10-O-Bis-(4'-O-p-cyanobenzoyl-α-L-rhodosaminyl)-β-rhodomycinon] |  |  |  | 0.105 µg/mL (≈ 0.109 µM) | > 1 µg/mL |  |
| CC[C@@]1(O)C[C@H](O[C@H]2C[C@H](N(C)C)[C@H](OC(=O)c3ccccc3)[C@H](C)O2)c2c(O)c3c(c(O)c2[C@H]1O[C@H]1C[C@H](N(C)C)[C@H](OC(=O)c2ccccc2)[C@H](C)O1)C(=O)c1cccc(O)c1C3=O [Compound 2, HCl adduct of compound 1] | 0.095 µg/mL | > 1 µg/mL |  |  |  | LD50 [2, 5]: > 85 mg/kg |
| CC[C@@]1(O)C[C@H](O[C@H]2C[C@H](N(C)C)[C@H](OC(=O)c3ccc(OC)cc3)[C@H](C)O2)c2c(O)c3c(c(O)c2[C@H]1O[C@H]1C[C@H](N(C)C)[C@H](OC(=O)c2ccc(OC)cc2)[C@H](C)O1)C(=O)c1cccc(O)c1C3=O [Compound 3, 7,10-O-Bis-(4'-O-p-methoxybenzoyl-α-L-rhodosaminyl)-β-rhodomycinone] |  |  | > 100 mg/kg | 0.115 µg/mL (≈ 0.119 µM) | > 1 µg/mL |  |
| CC[C@@]1(O)C[C@H](O[C@H]2C[C@H](N(C)C)[C@H](OC(=O)c3ccccc3)[C@H](C)O2)c2c(O)c3c(c(O)c2[C@H]1O[C@H]1C[C@H](N(C)C)[C@H](OC(=O)c2ccccc2)[C@H](C)O1)C(=O)c1cccc(O)c1C3=O [Compound 1, 7,10-O-Bis-(4'-O-benzoyl-α-L-rhodosaminyl)-β-rhodomycinone] |  |  | > 100 mg/kg |  |  | Degree of cross-resistance to adriamycin (L1210 leukemia cells): 0%; Degree of resistance of the cell (L1210 leukemia cells): 1.0 |
| CCC(=O)O[C@@H]1[C@H](C)O[C@@H](O[C@H]2C[C@](O)(CC)[C@H](O[C@H]3C[C@H](N(C)C)[C@H](OC(=O)CC)[C@H](C)O3)c3c(O)c4c(c(O)c32)C(=O)c2c(O)cccc2C4=O)C[C@@H]1N(C)C [Compound 10, 7,10-O-Bis-(4'-O-propionyl-α-L-rhodosaminyl)-β-rhodomycinone] | 0.12 µg/mL (≈ 0.148 µM) | 0.25 µg/mL (≈ 0.308 µM) |  |  |  |  |
| CC[C@@]1(O)C[C@H](O[C@H]2C[C@H](N(C)C)[C@H](OC(=O)c3ccccc3)[C@H](C)O2)c2c(O)c3c(c(O)c2[C@H]1O)C(=O)c1cccc(O)c1C3=O [Compound 17, 7-O-(4'-O-benzoyl-α-L-rhodosaminyl)-β-rhodomycinone] | 0.12 µg/mL (≈ 0.185 µM) | 0.9 µg/mL (≈ 1.39 µM) | 1 to 10 mg/kg |  |  |  |
| CC[C@@]1(O)C[C@H](O[C@H]2C[C@H](N(C)C)[C@H](OC(C)=O)[C@H](C)O2)c2c(O)c3c(c(O)c2[C@H]1O[C@H]1C[C@H](N(C)C)[C@H](OC(C)=O)[C@H](C)O1)C(=O)c1cccc(O)c1C3=O [Compound 9, 7,10-O-Bis-(4'-O-acetyl-α-L-rhodosaminyl)-β-rhodomycinone] | 0.026 µg/mL (≈ 0.0331 µM) | 0.06 µg/mL (≈ 0.0764 µM) | 3.4 to 6.5 mg/kg |  |  | Degree of cross-resistance to adriamycin (L1210 leukemia cells): 6.0%; Degree of resistance of the cell (L1210 leukemia cells): 6.0 |
| CC[C@@]1(O)CCc2c(O)c3c(c(O)c2[C@H]1O[C@H]1C[C@H](N(C)C)[C@H](OC(=O)c2ccccc2)[C@H](C)O1)C(=O)c1cccc(O)c1C3=O [Compound 22, 10-O-(4'-O-Benzoyl-α-L-rhodosaminyl)-γ-rhodomycinone] | 0.48 µg/mL (≈ 0.76 µM) | > 1 µg/mL | 1 to 10 mg/kg |  |  |  |
| CC[C@@]1(O)C[C@H](O[C@H]2C[C@H](N(C)C)[C@H](OC(=O)c3ccc([N+](=O)[O-])cc3)[C@H](C)O2)c2c(O)c3c(c(O)c2[C@H]1O[C@H]1C[C@H](N(C)C)[C@H](OC(=O)c2ccc([N+](=O)[O-])cc2)[C@H](C)O1)C(=O)c1cccc(O)c1C3=O [Compound 7, 7,10-O-Bis-(4'-O-p-nitrobenzoyl-α-L-rhodosaminyl)-β-rhodomycinone] |  |  |  | 2.1 µg/mL (≈ 2.1 µM) | > 10 µg/mL |  |
| CC[C@@]1(O)C[C@H](O[C@H]2C[C@H](N(C)C)[C@H](OC(=O)c3ccc(OC)cc3)[C@H](C)O2)c2c(O)c3c(c(O)c2[C@H]1O)C(=O)c1cccc(O)c1C3=O [Compound 18, 7-O-(4'-O-p-Methoxybenzoyl-α-L-rhodosaminyl)-β-rhodomycinone] | 0.075 µg/mL (≈ 0.111 µM) | 0.66 µg/mL (≈ 0.974 µM) | 10 to 50 mg/kg |  |  |  |
| COc1cccc2c1C(=O)c1c(O)c3c(c(O)c1C2=O)C[C@@](O)(C(=O)CO)C[C@@H]3O[C@H]1C[C@H](N)[C@H](O)[C@H](C)O1 [Adriamycin, reference compound] |  |  |  | 0.02 µg/mL (≈ 0.0368 µM) | 0.04 µg/mL (≈ 0.0736 µM) | Degree of cross-resistance to adriamycin (L1210 leukemia cells): 100.0%; Degree of resistance of the cell (L1210 leukemia cells): 60-80; resistance of the resistant cell line for doxorubicin (L1210 leukemia cells; resistant L1210 line, 4320 min): 60-80 fold |
| CC[C@@]1(O)C[C@H](O[C@H]2C[C@H](N(C)C)[C@H](OC(=O)c3ccc(Br)cc3)[C@H](C)O2)c2c(O)c3c(c(O)c2[C@H]1O[C@H]1C[C@H](N(C)C)[C@H](OC(=O)c2ccc(Br)cc2)[C@H](C)O1)C(=O)c1cccc(O)c1C3=O [Compound 8, 7,10-O-Bis-(4'-O-p-bromobenzoyl-α-L-rhodosaminyl)-β-rhodomycinone] |  |  |  | 0.3 µg/mL (≈ 0.281 µM) | > 10 µg/mL |  |

Reference: patent US4914191A, “Anthracycline derivatives having cytostatic activity” (Behringwerke Aktiengesellschaft, priority 1987, dated 1990)
